From ChEMBL document CHEMBL1201862, “PubChem BioAssay data set” (2004)
Activity calls are given as the source filed them.

Assays:
[1] = A cytotoxicity screen of small molecule inhibitors of the PhoP region in Salmonella typhi identified in the primary screen. [Related pubchem assays: 1850, 1864, 1985 ]; type: functional
[2] = molecular target: T1, Acyl-homoserine lactone acylase PvdQ (Pseudomonas aeruginosa (strain LESB58), UniProt Q9I194); test: PvdQ acylase enzyme activity blockers – biochemical, fluorescence, plate reader and imaging, cherry-picks, dose response (AID 493231)
T1 sequence (Q9I194 whole entry): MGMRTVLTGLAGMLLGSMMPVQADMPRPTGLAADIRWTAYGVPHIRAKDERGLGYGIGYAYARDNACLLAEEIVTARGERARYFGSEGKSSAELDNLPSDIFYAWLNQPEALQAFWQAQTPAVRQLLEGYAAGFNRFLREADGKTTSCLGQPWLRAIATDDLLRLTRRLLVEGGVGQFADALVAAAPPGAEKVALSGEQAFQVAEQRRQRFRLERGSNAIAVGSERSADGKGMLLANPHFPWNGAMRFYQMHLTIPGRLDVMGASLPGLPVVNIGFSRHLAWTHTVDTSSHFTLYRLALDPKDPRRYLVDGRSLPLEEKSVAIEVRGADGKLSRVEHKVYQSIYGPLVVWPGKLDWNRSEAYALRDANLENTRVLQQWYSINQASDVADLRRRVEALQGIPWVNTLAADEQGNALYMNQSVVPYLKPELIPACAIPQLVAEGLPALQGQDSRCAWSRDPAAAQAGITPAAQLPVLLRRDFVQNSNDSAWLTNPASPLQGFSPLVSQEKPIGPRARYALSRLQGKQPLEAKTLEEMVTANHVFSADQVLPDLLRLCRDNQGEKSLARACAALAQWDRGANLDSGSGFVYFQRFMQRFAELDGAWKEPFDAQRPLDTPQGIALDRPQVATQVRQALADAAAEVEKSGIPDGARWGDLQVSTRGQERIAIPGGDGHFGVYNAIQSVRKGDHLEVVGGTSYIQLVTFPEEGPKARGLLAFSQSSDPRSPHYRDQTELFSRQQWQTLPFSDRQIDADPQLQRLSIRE

Cytochrome P450 2C19 = Cytochrome P450 2C19 (Homo sapiens, UniProt P33261); test: Cytochrome panel assay with activity outcomes. Panel member name: p450-cyp2c19 Compounds with AC50 equal or less than 10 uM are considered active; type: functional; conditions: read-out: AC50
Sequence of Cytochrome P450 2C19 (P33261 whole entry): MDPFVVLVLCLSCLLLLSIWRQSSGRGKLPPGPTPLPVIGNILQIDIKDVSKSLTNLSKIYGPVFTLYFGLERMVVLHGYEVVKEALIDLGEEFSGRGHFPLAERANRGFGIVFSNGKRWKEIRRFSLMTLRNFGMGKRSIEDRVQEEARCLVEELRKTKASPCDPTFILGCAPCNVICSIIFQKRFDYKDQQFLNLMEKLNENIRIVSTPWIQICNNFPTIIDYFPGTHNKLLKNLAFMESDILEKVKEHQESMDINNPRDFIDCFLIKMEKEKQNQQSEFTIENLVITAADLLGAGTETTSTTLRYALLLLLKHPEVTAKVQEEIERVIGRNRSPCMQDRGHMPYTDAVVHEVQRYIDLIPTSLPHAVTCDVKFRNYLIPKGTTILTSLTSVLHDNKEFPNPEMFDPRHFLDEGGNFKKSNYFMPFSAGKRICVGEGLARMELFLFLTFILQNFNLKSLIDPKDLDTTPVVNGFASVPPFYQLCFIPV

Cytochrome P450 2D6 = Cytochrome P450 2D6 (Homo sapiens, UniProt P10635);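 further: CYP2D6 member of a cytochrome P450 panel assay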
Sequence of Cytochrome P450 2D6 (P10635 whole entry): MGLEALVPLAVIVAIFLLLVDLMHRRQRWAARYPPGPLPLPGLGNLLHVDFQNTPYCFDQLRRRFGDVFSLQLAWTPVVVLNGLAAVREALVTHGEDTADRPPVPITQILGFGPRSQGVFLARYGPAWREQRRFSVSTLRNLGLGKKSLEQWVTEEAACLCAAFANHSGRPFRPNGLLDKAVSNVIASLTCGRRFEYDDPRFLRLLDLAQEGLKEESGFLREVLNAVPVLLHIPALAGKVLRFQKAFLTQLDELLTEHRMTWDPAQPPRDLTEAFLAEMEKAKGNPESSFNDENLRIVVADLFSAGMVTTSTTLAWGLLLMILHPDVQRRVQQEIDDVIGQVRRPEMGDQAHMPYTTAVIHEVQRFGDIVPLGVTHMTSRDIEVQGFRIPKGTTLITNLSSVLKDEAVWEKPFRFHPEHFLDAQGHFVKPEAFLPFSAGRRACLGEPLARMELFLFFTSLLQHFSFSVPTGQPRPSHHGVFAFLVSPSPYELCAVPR

[3] = luciferase reporter signal suppression in cells – H4 neuroglioma cells, luminescence, dose response (AID 1990); type: functional, cell-based
[4] = molecular target: T2, RNA-binding protein pos-1 (Caenorhabditis elegans, UniProt G5EF15); test: disruptors of C. elegans POS-1 RNA interaction – biochemical, fluorescence polarization, dose response (AID 1964);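 further: purified POS-1 fused to maltose binding protein made in E. coli; potency of compounds blocking POS-1 binding to fluorescent RNA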
T2 sequence (G5EF15 whole entry): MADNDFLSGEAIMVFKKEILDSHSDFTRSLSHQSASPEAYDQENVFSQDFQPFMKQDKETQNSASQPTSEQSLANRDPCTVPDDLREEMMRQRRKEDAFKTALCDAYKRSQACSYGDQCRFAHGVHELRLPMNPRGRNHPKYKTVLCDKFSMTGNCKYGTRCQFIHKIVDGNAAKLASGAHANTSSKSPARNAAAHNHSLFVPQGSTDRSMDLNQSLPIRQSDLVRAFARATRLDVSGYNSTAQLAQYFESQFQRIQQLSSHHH

[5] = molecular target: Luciferin 4-monooxygenase (Photinus pyralis, UniProt P08659); test: Counter Screen for Luciferase-based Assay Positives. [Related pubchem assays: 620, 618, 411 ]
Sequence of Luciferin 4-monooxygenase (P08659 whole entry): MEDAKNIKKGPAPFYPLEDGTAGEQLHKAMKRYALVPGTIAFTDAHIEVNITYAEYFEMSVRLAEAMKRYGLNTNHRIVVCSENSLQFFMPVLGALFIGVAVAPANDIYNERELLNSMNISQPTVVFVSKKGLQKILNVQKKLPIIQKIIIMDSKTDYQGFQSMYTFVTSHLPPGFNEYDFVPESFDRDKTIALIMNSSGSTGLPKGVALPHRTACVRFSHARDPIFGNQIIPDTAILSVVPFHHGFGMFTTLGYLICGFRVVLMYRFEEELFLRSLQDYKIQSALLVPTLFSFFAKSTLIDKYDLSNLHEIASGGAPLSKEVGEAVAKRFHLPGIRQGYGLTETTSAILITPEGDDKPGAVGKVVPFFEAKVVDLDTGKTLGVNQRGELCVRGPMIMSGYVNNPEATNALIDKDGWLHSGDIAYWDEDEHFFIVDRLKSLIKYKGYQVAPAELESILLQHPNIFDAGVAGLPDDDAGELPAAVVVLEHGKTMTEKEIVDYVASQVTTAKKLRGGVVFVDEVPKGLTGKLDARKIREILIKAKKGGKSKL

[6] = molecular target: Glyceraldehyde-3-phosphate dehydrogenase (Homo sapiens, UniProt P04406)
Sequence of Glyceraldehyde-3-phosphate dehydrogenase (P04406 whole entry): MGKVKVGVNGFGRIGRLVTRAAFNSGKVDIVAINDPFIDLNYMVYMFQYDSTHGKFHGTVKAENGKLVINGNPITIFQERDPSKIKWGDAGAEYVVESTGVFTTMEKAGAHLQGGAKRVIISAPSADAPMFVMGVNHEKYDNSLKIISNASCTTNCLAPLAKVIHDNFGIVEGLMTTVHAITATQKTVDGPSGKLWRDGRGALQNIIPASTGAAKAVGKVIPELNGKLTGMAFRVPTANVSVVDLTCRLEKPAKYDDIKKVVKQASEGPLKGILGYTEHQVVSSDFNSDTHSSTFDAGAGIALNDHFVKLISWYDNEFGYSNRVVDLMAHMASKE

[7] = Luminescence Cell-Based Dose Response HTS to Identify Inhibitors of 5'UTR Stem-Loop Driven Prion Protein mRNA Translation in H4 Neuroglioblastoma Cells. [Related pubchem assays: 1827 (Project Summary), 1813 (Primary HTS)]; type: functional
[8] = molecular target: T3, Zinc finger protein mex-5 (Caenorhabditis elegans, UniProt Q9XUB2); test: potency of MEX-5 RNA-binding blockers – biochemical, C. elegans, fluorescence polarization, dose response (AID 1960)
T3 sequence (Q9XUB2 whole entry): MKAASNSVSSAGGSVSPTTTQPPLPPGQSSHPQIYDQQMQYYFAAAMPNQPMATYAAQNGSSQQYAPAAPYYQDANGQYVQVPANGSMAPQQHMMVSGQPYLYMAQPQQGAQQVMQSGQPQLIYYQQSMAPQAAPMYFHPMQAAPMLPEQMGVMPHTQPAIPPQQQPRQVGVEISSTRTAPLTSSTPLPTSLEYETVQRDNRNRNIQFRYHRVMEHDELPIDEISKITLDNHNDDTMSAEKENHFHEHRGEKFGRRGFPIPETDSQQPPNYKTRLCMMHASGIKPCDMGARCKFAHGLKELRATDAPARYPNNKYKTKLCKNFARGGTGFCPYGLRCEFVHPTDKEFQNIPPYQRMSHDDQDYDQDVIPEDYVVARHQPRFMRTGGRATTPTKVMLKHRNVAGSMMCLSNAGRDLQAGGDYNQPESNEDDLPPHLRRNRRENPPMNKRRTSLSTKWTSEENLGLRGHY

[9] = alpha-synuclein stem-loop luciferase translation blockers – H4 neuroglioma cells, luminescence, confirmation (AID 1988); type: functional, cell-based
HT-1080 = test: HT1080 cell viability loss – fluorescence readout (AID 620); type: functional, cell-based; conditions: Homo sapiens
[10] = molecular target: Heat shock protein HSP 90-alpha (Homo sapiens, UniProt P07900); test: Luminescence-based dose response biochemical high throughput screening assay for inhibitors of the Heat Shock Protein 90 (HSP90). [Related pubchem assays: 1831 (Summary AID.), 1846 (Confirmation screen.), 1789 (Primary screen.)]
[11] = HEK-293T cell viability reduction – luminescence, B-cell screen hits, cytotoxicity control for BCR NF-kB inhibitor project, dose response (AID 489021); type: functional, cell-based;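 further: HEK-293T cells carrying an NF-kB luciferase reporter; cells exposed to compound for about 14 hours before viability readout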
Aspartyl aminopeptidase = molecular target: T4, Aspartyl aminopeptidase (Plasmodium falciparum 3D7, UniProt Q8I2J3)
T4 sequence (Q8I2J3 whole entry): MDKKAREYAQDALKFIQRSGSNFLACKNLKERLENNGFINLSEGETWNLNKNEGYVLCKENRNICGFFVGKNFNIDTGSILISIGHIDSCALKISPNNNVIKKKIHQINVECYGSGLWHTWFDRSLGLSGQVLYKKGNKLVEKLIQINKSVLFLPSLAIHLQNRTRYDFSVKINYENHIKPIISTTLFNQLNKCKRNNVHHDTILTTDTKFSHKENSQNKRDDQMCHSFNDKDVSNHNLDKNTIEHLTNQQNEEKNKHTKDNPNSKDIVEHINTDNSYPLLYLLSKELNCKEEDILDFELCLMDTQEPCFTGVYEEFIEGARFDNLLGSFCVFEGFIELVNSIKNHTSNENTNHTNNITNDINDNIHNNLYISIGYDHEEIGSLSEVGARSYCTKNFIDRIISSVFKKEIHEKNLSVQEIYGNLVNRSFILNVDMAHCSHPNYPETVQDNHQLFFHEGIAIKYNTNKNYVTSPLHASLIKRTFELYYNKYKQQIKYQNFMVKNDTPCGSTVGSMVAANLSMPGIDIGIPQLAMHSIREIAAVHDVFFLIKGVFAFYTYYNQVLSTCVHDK

Procathepsin L = Procathepsin L (Homo sapiens, UniProt P07711)
Sequence of Procathepsin L (P07711 whole entry, the tested form may be a part): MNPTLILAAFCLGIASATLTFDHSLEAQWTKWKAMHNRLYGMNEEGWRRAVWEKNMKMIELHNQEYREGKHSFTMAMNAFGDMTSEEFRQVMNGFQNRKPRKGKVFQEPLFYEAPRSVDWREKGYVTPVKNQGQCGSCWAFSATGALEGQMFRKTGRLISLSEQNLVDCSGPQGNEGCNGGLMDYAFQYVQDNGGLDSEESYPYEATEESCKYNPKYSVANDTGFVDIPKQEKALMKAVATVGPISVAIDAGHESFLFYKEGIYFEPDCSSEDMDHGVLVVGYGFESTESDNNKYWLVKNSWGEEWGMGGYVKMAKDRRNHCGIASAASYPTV

[12] = molecular target: T5, Oxysterols receptor LXR-beta (Homo sapiens, UniProt P55055); type: functional, cell-based;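 further: Cell-based luminescence dose-response assay of agonist activity at LXR, run as a confirmatory counterscreen to a daf-12 agonist screen; HEK293 cells with Gal4-LXR fusion and GAL4-driven luciferase reporter; agonist potency from rising luciferase signal of a Gal4-LXR reporter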
T5 sequence (P55055 whole entry): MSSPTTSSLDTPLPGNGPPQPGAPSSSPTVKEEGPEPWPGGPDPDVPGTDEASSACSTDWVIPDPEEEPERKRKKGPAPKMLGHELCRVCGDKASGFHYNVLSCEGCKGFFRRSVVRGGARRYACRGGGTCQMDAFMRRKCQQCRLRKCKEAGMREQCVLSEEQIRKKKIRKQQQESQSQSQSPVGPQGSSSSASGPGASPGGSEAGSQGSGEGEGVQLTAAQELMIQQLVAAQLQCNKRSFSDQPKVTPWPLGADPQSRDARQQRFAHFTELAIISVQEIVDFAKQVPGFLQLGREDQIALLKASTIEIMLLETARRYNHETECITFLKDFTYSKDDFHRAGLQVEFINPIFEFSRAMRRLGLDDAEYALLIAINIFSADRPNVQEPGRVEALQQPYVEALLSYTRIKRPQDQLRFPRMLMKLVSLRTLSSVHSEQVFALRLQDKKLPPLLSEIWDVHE

X-box-binding protein 1 = molecular target: T6, X-box-binding protein 1 (Homo sapiens, UniProt P17861); type: functional, Cricetulus griseus;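 further: confirmatory dose-response counter-screen serving a CHOP assay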
T6 sequence (P17861 whole entry): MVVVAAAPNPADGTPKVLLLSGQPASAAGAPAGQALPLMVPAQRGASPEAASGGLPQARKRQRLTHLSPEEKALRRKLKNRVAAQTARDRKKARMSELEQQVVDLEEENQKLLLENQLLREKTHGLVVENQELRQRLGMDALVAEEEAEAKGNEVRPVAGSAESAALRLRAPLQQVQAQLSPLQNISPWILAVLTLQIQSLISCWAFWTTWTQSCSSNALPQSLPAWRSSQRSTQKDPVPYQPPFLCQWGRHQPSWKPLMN

[13] = molecular target: Peroxisome proliferator-activated receptor gamma/Nuclear receptor coactivator 2 (Homo sapiens, UniProt P37231); type: functional;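 further: agonist potency for raising coactivator recruitment to the receptor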
Sequence of Peroxisome proliferator-activated receptor gamma/Nuclear receptor coactivator 2 (P37231 whole entry): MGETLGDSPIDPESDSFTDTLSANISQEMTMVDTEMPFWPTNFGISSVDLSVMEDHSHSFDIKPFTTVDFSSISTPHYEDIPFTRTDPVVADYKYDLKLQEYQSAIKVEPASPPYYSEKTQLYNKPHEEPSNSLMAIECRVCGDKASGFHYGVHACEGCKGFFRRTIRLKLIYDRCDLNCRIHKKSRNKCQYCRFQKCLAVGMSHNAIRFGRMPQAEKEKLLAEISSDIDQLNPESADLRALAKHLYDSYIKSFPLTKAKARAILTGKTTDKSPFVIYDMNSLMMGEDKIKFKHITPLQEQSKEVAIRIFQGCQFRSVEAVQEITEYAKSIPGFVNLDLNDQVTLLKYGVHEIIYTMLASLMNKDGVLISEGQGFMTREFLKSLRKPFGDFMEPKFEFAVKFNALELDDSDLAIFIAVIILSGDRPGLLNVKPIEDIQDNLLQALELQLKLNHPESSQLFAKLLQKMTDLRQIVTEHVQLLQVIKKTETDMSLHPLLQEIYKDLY
Sequence of Peroxisome proliferator-activated receptor gamma/Nuclear receptor coactivator 2 (Q15596 whole entry, further chain): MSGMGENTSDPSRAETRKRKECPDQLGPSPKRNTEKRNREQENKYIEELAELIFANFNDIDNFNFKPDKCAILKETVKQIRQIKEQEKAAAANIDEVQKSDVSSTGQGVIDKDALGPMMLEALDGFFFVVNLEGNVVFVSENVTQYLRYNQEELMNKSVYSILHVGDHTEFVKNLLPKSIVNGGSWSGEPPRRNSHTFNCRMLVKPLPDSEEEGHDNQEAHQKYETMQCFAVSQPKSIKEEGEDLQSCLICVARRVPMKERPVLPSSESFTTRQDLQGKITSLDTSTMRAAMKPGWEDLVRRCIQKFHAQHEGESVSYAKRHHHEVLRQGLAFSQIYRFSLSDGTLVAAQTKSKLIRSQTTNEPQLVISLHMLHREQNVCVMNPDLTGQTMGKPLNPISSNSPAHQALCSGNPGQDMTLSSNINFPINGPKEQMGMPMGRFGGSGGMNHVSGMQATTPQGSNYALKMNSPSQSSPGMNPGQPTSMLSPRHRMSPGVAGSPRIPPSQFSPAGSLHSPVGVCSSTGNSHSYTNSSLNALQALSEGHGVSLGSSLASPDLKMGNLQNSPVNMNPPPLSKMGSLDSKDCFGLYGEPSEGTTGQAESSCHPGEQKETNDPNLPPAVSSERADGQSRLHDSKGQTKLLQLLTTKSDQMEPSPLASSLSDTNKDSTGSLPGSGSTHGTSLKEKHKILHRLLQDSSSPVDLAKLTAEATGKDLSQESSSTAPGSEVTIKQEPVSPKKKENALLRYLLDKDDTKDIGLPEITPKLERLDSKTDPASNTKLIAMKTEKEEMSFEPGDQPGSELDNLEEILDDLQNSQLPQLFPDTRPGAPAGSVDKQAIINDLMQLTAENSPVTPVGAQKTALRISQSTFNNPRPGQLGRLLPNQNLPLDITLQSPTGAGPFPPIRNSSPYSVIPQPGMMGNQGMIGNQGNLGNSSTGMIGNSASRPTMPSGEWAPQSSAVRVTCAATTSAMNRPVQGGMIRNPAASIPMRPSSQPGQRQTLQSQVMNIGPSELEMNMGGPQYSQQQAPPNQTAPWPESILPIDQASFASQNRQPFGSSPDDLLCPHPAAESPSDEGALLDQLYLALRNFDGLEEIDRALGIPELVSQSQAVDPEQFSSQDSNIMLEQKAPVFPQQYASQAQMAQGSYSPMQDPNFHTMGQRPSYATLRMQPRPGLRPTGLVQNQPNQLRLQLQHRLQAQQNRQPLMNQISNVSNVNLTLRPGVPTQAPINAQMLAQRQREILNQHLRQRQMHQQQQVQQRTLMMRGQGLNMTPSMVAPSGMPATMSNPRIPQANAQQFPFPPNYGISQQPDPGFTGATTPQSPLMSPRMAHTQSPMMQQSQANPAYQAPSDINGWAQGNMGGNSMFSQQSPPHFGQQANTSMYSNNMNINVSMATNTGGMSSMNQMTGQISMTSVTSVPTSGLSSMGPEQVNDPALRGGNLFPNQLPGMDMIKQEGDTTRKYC

[14] = molecular target: Peroxisome proliferator-activated receptor gamma/Nuclear receptor coactivator 1 (Homo sapiens, UniProt P37231); type: functional;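 further: agonist potency as compounds enhance coactivator SRC-1 recruitment to PPARgamma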
[15] = molecular target: Peroxisome proliferator-activated receptor gamma/Nuclear receptor coactivator 3 (Homo sapiens, UniProt P37231); type: functional;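 further: agonist potency for raising coactivator recruitment to the receptor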
[16] = molecular target: T7, Rac GTPase-activating protein 1 (Homo sapiens, UniProt Q9H0H5); test: blockers of MgcRacGAP-driven Rac1 GTP hydrolysis – biochemical, ADP Hunter fluorescence, primary and confirmatory, confirmation (AID 624330); type: functional
T7 sequence (Q9H0H5 whole entry): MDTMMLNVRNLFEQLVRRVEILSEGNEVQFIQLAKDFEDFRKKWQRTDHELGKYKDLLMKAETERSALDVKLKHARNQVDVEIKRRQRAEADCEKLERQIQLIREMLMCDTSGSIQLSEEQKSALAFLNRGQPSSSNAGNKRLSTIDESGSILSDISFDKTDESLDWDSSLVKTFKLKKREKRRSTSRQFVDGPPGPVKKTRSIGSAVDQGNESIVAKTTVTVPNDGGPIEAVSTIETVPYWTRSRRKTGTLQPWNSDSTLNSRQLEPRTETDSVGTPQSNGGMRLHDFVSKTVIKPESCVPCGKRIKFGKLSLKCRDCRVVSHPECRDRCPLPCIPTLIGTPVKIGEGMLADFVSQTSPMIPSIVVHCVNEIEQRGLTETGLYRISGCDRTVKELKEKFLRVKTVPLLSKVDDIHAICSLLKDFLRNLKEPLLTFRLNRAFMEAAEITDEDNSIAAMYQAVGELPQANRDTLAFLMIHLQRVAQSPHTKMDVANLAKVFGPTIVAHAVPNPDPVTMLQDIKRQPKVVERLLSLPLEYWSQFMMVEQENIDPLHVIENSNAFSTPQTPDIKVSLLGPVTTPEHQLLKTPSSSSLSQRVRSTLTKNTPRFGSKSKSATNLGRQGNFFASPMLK

BJ [17] = test: BJ-TERT fibroblast viability loss – cell-based, RAS-independent, luminescence, dose response (AID 1933); type: functional; conditions: Homo sapiens
BJ [18] = test: cells; type: functional, cell-based; conditions: Homo sapiens
BJ [19] = test: BJ-TERT-LT-ST fibroblast viability loss – cell-based, RAS-independent, luminescence, dose response (AID 1935); type: functional; conditions: Homo sapiens;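 further: BJ fibroblasts immortalized with TERT plus LT and ST oncogenes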
[20] = DRD fibroblast viability loss – cell-based, non-viral oncogenic, luminescence, dose response (AID 1934); type: functional; conditions: Homo sapiens

SMILES: O=c1c2ccccc2[nH]c2ccc(F)cc12
- EC50 [1]: > 50 µM (active)

SMILES: COc1ccc(/C=C/C(=O)c2ccoc2)cc1
- AC50 [2]: 11.4 µM (active)
- AC50 (Cytochrome P450 2C19): 14.1 µM (inconclusive)
- AC50 (Cytochrome P450 2D6): 25.1 µM (inconclusive)

SMILES: CCN(CC)c1ccc2cc(NC(=O)CCC(=O)O)c(=O)oc2c1
- EC50 [3]: < 0.1 µM (active)
- EC50 [4]: 120 µM (inconclusive)
- EC50 [5]: > 100 µM (not active)
- IC50 [6]: > 100 µM (not active)
- EC50 [7]: 3.7 µM (active)
- EC50 [8]: 7.36 µM (active)
- EC50 [9]: 0.491 µM (active)
- EC50 (HT-1080): > 50 µM (not active)
- IC50 [10]: > 60 µM (not active)
- IC50 [11]: > 80 µM (inactive)

SMILES: COc1ccc(N2C(=O)/C(=C\Nn3cnnc3)c3ccccc3C2=O)cc1
- IC50 (Aspartyl aminopeptidase): 1.56 µM (active)
- IC50 (Procathepsin L): > 59.6 µM (not active)

SMILES: Cc1ccc(OCCCCn2c(CO)nc3ccccc32)cc1
- EC50 [1]: > 50 µM (active)

SMILES: COc1ccc(-c2ccc(OC)cc2)cc1
- AC50 [2]: 78.8 µM (active)

SMILES: O/C(=C\C=N\c1cccc(O)c1)c1ccccc1
- EC50 [5]: 1.03 µM (active)
- EC50 (HT-1080): > 50 µM (not active)
- EC50 [12]: > 67.6 µM (inactive)
- EC50 (cells): > 67.6 µM (inactive)

SMILES: Cc1cc(S(=O)(=O)NCC2CC2)c(Cl)cc1Cl
- AC50 [2]: 1.1 µM (active)

SMILES: O=C(Nc1cc(Cl)ccc1Cl)Nn1cnnc1
- IC50 (Aspartyl aminopeptidase): 0.5 µM (active)
- IC50 (Procathepsin L): > 59.6 µM (not active)

SMILES: FC(F)C(F)(F)C(F)(F)C(F)(F)c1cc(-c2ccccc2)[nH]n1
- Absolute IC50 (XBP1) (X-box-binding protein 1): 10 µM

SMILES: S=C(Nc1cc(Cl)ccc1Cl)Nn1cnnc1
- IC50 (Aspartyl aminopeptidase): 0.662 µM (active)
- IC50 (Procathepsin L): > 59.6 µM (not active)

SMILES: COC(=O)c1[nH]c2cc(OC)c(OC)cc2c1NC(=O)Oc1ccccc1
- EC50 [13]: 90.7 µM (not active)
- EC50 [14]: 97.7 µM (not active)
- EC50 [15]: > 79.4 µM (not active)
- IC50 [16]: 28.8 µM (active)

SMILES: COc1ccc(-c2nc3ccccc3[nH]2)cc1
- EC50 (BJ [17]): 8.49 µM (active)
- EC50 [5]: 11 µM (active)
- EC50 (BJ [18]): 19.1 µM (active)
- EC50 (HT-1080): 20.3 µM (active)
- EC50 (BJ [19]): 22.7 µM (active)
- EC50 [20]: 9.35 µM (active)

SMILES: CCOC(=O)c1ccc(S(=O)(=O)N2CCN(CCC#N)CC2)cc1
- EC50 [1]: > 50 µM (active)
